Experiment [1] concerns the target Ec_ilvC^P2D1-A1. As to the kind of experiment: NKR assay in microtiter plates to measure inhibition by DHIV. The conditions noted are these: 200 μM NADH, varied (S)-2-acetolactate, pH 7; read-out: K of Ec_ilvC^P2D1-A1 for DHIV (inhibition constant). In kind it is biochemical, E. coli. The procedure:
NKR activity was assayed kinetically by monitoring the decrease in NADH concentration by measuring the absorbance at 340 nm. A reaction buffer was prepared containing 250 mM potassium phosphate pH 7, 1 mM DTT, 200 μM NADH, 2.5 mM (S)-2-acetolactate, and 10 mM MgCl2. Ten μL purified enzyme were placed into a microtiter plate. The reaction was initiated by addition of 90 μL of the reaction buffer. The kinetics with respect to substrate conversion in presence of the inhibitor were determined by varying the substrate concentration (5.1, 2.55, 1.275, 0.638, 0.319, 0.159, and 0.0799 mM), while keeping the cofactor concentration constant at 200 μM. The inhibition constant was measured by repeating these measurements with different amounts of inhibitor (0, 0.07, 0.13, 0.26, 0.51, and 1.07 mM, final concentrations).

Experiment [2] addresses E. coli KARI (Escherichia coli, UniProt P05793). The experiment is described as follows: KARI assay in 100-μL scale to measure IC50 in presence of R-DHIV. In kind it is biochemical. The conditions noted are these: for Ki: calculated via Cheng-Prusoff equation. The procedure: (§1) Assay buffers were prepared containing 250 mM potassium phosphate pH 7.0, 1 mM DTT, 10 mM MgCl2, 2.5 mM acetolactate, 200 μM NADPH, and increasing concentrations of R-DHIV (0-85.5 mM (final concentrations). Ten μL purified enzyme were placed into a flat-bottom assay plate (Evergreen Scientific). The reactions were initiated by addition of 90 μL assay buffer. The change in absorbance at 340 nm was monitored over 1 min in a plate reader (TECAN).

The target of experiment [3] is L. lactis KARI (Lactococcus lactis subsp. lactis, UniProt Q02138). The experiment is described as above. In kind it is biochemical. How it is done: as §1
Sequence of L. lactis KARI (Q02138 whole entry): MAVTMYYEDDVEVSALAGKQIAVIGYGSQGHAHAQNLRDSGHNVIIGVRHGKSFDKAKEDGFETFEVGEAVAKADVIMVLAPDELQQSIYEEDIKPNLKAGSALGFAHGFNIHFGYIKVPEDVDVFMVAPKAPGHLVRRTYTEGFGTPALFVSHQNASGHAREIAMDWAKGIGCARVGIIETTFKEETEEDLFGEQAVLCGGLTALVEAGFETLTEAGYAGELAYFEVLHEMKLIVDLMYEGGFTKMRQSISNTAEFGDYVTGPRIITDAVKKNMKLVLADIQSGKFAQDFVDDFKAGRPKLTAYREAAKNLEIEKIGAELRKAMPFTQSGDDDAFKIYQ
The target in experiment [4] is S. exigua KARI (Slackia exigua, UniProt D0WGK0). Described as above. In kind it is biochemical. The procedure: as §1
Sequence of S. exigua KARI (D0WGK0 whole entry): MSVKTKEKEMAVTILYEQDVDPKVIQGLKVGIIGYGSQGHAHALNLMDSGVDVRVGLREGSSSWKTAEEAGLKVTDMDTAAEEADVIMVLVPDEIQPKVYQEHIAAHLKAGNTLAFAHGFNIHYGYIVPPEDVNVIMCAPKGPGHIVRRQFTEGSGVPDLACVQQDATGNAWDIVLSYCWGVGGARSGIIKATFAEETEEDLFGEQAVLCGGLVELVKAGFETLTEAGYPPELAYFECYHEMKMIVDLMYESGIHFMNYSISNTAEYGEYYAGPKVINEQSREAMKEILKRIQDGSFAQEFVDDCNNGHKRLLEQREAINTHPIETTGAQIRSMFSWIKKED
Setting [5] is: 2.5 mM acetolactate, 200 μM NADPH, pH 7.0.
Where [6] appears, read: calculated via Cheng-Prusoff equation.

Several values for one entry are separate records, joined by “and”; a condition that tells them apart may be missing. Equal values may be shown once.

Sequence of E. coli KARI (P05793 whole entry): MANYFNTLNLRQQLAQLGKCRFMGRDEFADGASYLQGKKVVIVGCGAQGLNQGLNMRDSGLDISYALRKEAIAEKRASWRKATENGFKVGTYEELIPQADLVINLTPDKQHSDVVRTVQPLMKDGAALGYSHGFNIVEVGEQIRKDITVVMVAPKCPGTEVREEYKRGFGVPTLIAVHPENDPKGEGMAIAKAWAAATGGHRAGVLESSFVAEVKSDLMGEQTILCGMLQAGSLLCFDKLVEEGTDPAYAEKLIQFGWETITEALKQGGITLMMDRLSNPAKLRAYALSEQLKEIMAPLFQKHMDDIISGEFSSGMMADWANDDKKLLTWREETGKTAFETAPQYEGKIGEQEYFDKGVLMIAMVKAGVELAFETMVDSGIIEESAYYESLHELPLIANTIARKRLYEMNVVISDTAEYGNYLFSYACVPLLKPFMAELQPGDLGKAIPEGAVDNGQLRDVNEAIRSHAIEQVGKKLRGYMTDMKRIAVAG

`CC(C)(O)C(O)C(=O)O` (centres unmarked) [DHIV, 2,3-dihydroxyisovalerate]: the Ki was 0.045 mM in experiment [1] and 0.1 mM in experiment [2].

Consider `CC(C)(O)[C@@H](O)C(=O)O` [R-DHIV], for which the IC50 in experiment [3] (setting [5]) is 2.5 ± 0.7 mM; in experiment [2] (setting [5]), 1 mM and 1.1 mM; in experiment [4] (setting [5]), 26.7 mM and 27 mM. The Ki in experiment [3] (setting [6]) was 1.7 mM; in experiment [2] it was 0.1 mM; in experiment [4] (setting [6]), 1.7 mM. For the same compound, the “IC50 on S. exigua KARI, times higher than IC50 of the E. coli KARI” value in experiment [4] is 27 fold. Also, the “IC50 on S. exigua KARI, times higher than IC50 of the L. lactis KARI” value in experiment [4] is 10 fold. Further, in experiment [4], the “Ki on S. exigua KARI, times higher than Ki calculated for E. coli KARI” value is reported as 17 fold.

The values above are taken from patent US20140295512A1, “Ketol-Acid Reductoisomerases With Improved Performance Properties” (CALIFORNIA INSTITUTE OF TECHNOLOGY, priority 2011, published 2014).
